Results from the supplement of paper PMC10307832.

What was measured:
Assay in all cases: relative viability (nuclei count vs DMSO), 5 days (fraction); higher = more cells survive
4EGI-1 + Foretinib = compound: O=C(O)C(Cc1ccccc1[N+](=O)[O-])=NNc1nc(-c2ccc(Cl)c(Cl)c2)cs1 (mixture of isomers) [4EGI-1] + COc1cc2c(Oc3ccc(NC(=O)C4(C(=O)Nc5ccc(F)cc5)CC4)cc3F)ccnc2cc1OCCCN1CCOCC1 [Foretinib] (partner 0.25 µM)
Summary of the method: (§1)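 Cells from lung cancer lines were seeded into 1536-well plates and, one day later, dosed by pin tool. Treatments were either a single drug or a fixed dose of an anchor drug with five library-drug doses (not always all listed) in √10 steps. After 5 days, nuclei were stained in a one-step fixation (final 0.05% Triton X-100, 1% formaldehyde, 1 ug/ml Hoechst) and counted on 4× images, and relative viability is the treated-to-vehicle nuclei ratio, as the median of duplicate plates.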

XMD8-85 + Tozasertib = compound: CN1CCN(CC1)C2=CC(=C(C=C2)NC3=NC=C4C(=N3)N(C5=CC=CC=C5C(=O)N4C)C)OC [XMD8-85] + Cc1cc(Nc2cc(N3CCN(C)CC3)nc(Sc3ccc(NC(=O)C4CC4)cc3)n2)n[nH]1 [Tozasertib] (partner 0.1 µM)
Summary of the method: as §1

4EGI-1 + Linsitinib = compound: O=C(O)C(Cc1ccccc1[N+](=O)[O-])=NNc1nc(-c2ccc(Cl)c(Cl)c2)cs1 (mixture of isomers) [4EGI-1] + C[C@]1(O)C[C@@H](c2nc(-c3ccc4ccc(-c5ccccc5)nc4c3)c3c(N)nccn32)C1 [Linsitinib] (partner 1 µM)
Summary of the method: as §1

4EGI-1 + Bortezomib = compound: O=C(O)C(Cc1ccccc1[N+](=O)[O-])=NNc1nc(-c2ccc(Cl)c(Cl)c2)cs1 (mixture of isomers) [4EGI-1] + CC(C)C[C@H](NC(=O)[C@H](Cc1ccccc1)NC(=O)c1cnccn1)B(O)O [Bortezomib] (partner 0.002 µM)
Summary of the method: as §1

Cell Line | relative viability (4EGI-1 + Foretinib; first compound 0.5 µM) | relative viability (4EGI-1 + Foretinib; first compound 5 µM) | relative viability (4EGI-1 + Foretinib; first compound 15.81 µM) | relative viability (4EGI-1 + Foretinib; first compound 50 µM) | relative viability (XMD8-85 + Tozasertib; first compound 0.08 µM) | relative viability (XMD8-85 + Tozasertib; first compound 0.253 µM) | relative viability (XMD8-85 + Tozasertib; first compound 0.8 µM) | relative viability (XMD8-85 + Tozasertib; first compound 2.53 µM) | relative viability (XMD8-85 + Tozasertib; first compound 8 µM) | relative viability (4EGI-1 + Linsitinib; first compound 0.5 µM) | relative viability (4EGI-1 + Linsitinib; first compound 1.581 µM) | relative viability (4EGI-1 + Linsitinib; first compound 5 µM) | relative viability (4EGI-1 + Linsitinib; first compound 15.81 µM) | relative viability (4EGI-1 + Linsitinib; first compound 50 µM) | relative viability (4EGI-1 + Bortezomib; first compound 0.5 µM) | relative viability (4EGI-1 + Bortezomib; first compound 1.581 µM) | relative viability (4EGI-1 + Bortezomib; first compound 5 µM) | relative viability (4EGI-1 + Bortezomib; first compound 15.81 µM) | relative viability (4EGI-1 + Bortezomib; first compound 50 µM) | relative viability (4EGI-1 + Foretinib; first compound 1.581 µM)
EPLC-272H | 0.721 | 0.735 | 1.26 | 0.132 | 0.294 | 0.241 | 0.557 | 0.281 | 0.25 | 1.31 | 0.938 | 1.19 | 1.21 | 1.24 | 1.01 | 0.686 | 0.898 | 0.618 | 0.497 | –
PC-3 [JPC-3] | 1.09 | 0.967 | – | 0.463 | 0.723 | 0.848 | 0.974 | 1 | 0.625 | 0.96 | 0.862 | 0.96 | – | 0.889 | 0.787 | 0.81 | 0.812 | – | 0.645 | 0.984
SW 1573 | 1.13 | 1.13 | 0.878 | 0.52 | 0.222 | 0.197 | 0.175 | 0.174 | 0.156 | 1 | 0.669 | 0.917 | 0.741 | 0.961 | 1.4 | 1.06 | 0.972 | 0.948 | 0.822 | 0.954
NCI-H520 | 0.89 | 0.937 | 0.875 | 0.638 | 0.388 | 0.414 | 0.44 | 0.406 | 0.341 | 1.19 | 0.984 | 1.01 | 0.75 | 0.558 | 0.838 | 0.521 | 0.999 | 0.536 | 0.108 | 0.812
RERF-LC-KJ | 0.883 | 0.857 | 0.695 | 0.734 | 0.552 | 0.465 | 0.473 | 0.409 | 0.295 | 0.966 | 0.706 | 0.868 | 0.815 | 0.843 | 1.09 | – | 1.07 | 0.847 | 0.931 | 0.77
NCI-H2085 | 0.826 | 1.07 | 0.814 | 0.541 | 0.745 | 0.913 | 0.791 | 0.644 | 0.502 | 1.03 | 0.911 | 0.887 | 0.771 | 0.639 | 1.14 | 1.04 | 1.16 | 0.964 | 0.517 | 1.02
NCI-H661 | 0.999 | 0.994 | 0.714 | 0.313 | 0.383 | 0.346 | 0.366 | 0.353 | 0.392 | 0.723 | 0.502 | 0.624 | 0.394 | 0.309 | 1.13 | 0.752 | 0.877 | 0.55 | 0.464 | 0.94
NCI-H2228 | 0.906 | 0.938 | 0.882 | 0.166 | 0.194 | 0.261 | 0.267 | 0.207 | 0.197 | 0.778 | 0.783 | 0.734 | 0.721 | 0.166 | 1.25 | 0.952 | 1.05 | 0.599 | 0.252 | 0.878
CAL-12T | 1.11 | 1.08 | 1.07 | 0.589 | 0.287 | 0.348 | 0.296 | 0.259 | 0.214 | 0.87 | 0.598 | 0.922 | 0.779 | 0.859 | – | – | 1.1 | 0.951 | 0.403 | 0.857
NCI-H441 | 0.909 | 1.01 | 0.882 | 0.447 | 0.758 | 0.601 | 0.657 | 0.768 | 0.408 | 0.77 | 0.492 | 0.798 | 0.469 | 0.196 | 0.634 | 0.517 | 0.659 | 0.492 | 0.441 | 0.929
NCI-H1437 | 1.25 | 1.24 | 1.04 | 0.521 | 0.408 | 0.415 | 0.401 | 0.329 | 0.221 | 1.16 | 1 | 0.919 | 0.241 | 0.152 | 0.604 | 0.632 | 0.442 | 0.187 | 0.119 | 1.12
LU99A | 0.817 | 0.856 | 0.616 | 0.551 | 0.281 | 0.257 | 0.252 | 0.253 | 0.239 | 0.593 | – | 0.651 | 0.524 | 0.401 | 1.28 | – | 1.06 | 0.873 | 0.191 | 0.605
NCI-H2347 | 0.989 | 1.11 | 0.806 | 0.933 | 0.497 | 0.438 | 0.545 | 0.516 | 0.386 | 1.08 | 0.805 | 0.96 | 0.944 | 0.87 | 1.06 | 0.835 | 0.992 | 1.08 | 0.886 | 0.835
EKVX | 1.08 | 0.925 | 0.686 | 0.815 | 0.404 | 0.34 | 0.41 | 0.427 | 0.276 | 1.12 | 0.859 | 0.964 | 0.755 | 0.882 | 1.09 | 0.965 | 1.06 | 1.04 | 1.04 | 0.121
H3255 | 0.982 | 0.907 | 0.775 | 0.823 | 0.599 | 0.646 | 0.651 | 0.25 | 0.469 | 1.09 | 0.697 | 0.994 | 0.584 | 0.857 | 0.843 | 0.663 | 0.796 | 0.576 | 0.48 | 0.788
ABC-1 | 1.21 | 1.17 | 0.587 | 0.271 | 0.142 | 0.159 | 0.19 | 0.15 | 0.231 | 0.977 | 0.863 | 0.806 | 0.68 | 0.419 | 0.344 | 0.291 | 0.319 | 0.285 | 0.214 | 0.896
